# What was measured:
# Histone deacetylase 2 [1] = target: T1, Histone deacetylase 2 (Homo sapiens, UniProt Q92769); experiment: Inhibition of His-6-tagged full length HDAC2 (unknown origin) expressed in sf9 cells using carboxyfluorescein (FAM)-labeled acetylated peptide as substrate after 17 hrs by fluorescence-based electrophoretic assay
# [2] = target: T2, Protein deacetylase HDAC6 (Homo sapiens, UniProt Q9UBN7); experiment: Inhibition of His-6-tagged full length HDAC6 (unknown origin) expressed in sf9 cells using carboxyfluorescein (FAM)-labeled acetylated peptide as substrate after 17 hrs by fluorescence-based electrophoretic assay
# T2 sequence (Q9UBN7 whole entry): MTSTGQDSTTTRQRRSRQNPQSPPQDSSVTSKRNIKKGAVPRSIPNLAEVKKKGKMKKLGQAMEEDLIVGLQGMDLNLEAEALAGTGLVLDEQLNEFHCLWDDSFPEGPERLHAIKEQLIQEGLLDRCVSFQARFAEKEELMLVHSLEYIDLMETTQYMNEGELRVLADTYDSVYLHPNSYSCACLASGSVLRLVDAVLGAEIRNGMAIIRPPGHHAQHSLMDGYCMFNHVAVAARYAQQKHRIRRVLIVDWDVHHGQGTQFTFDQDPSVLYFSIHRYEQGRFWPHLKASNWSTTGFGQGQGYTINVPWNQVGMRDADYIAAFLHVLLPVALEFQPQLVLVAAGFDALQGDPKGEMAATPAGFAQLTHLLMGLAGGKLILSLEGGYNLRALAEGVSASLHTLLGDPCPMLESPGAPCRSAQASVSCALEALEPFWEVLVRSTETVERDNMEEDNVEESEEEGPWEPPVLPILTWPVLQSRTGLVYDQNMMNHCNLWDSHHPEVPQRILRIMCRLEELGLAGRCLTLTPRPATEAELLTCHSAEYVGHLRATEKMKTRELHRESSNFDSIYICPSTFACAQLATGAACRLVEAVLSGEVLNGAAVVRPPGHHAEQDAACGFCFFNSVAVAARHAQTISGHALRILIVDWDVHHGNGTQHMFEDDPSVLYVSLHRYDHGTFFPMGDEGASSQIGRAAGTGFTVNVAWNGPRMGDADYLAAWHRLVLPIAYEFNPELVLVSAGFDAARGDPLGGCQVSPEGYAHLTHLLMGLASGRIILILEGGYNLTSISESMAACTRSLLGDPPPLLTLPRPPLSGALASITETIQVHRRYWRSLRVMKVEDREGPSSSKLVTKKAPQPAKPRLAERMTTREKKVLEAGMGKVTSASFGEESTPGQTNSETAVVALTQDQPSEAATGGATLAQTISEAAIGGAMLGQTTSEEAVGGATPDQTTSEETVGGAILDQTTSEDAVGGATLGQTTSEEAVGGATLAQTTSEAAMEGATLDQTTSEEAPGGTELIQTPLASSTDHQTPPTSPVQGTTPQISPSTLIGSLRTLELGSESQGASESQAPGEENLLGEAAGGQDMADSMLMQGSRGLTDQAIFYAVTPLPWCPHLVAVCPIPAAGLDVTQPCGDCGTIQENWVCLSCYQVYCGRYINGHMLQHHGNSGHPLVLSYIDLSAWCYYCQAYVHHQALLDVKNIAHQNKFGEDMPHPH
# Histone deacetylase 8 [3] = target: T3, Histone deacetylase 8 (Homo sapiens, UniProt Q9BY41); experiment: Inhibition of His-6-tagged full length HDAC8 (unknown origin) expressed in sf9 cells using carboxyfluorescein (FAM)-labeled acetylated peptide as substrate after 17 hrs by fluorescence-based electrophoretic assay
# T3 sequence (Q9BY41 whole entry): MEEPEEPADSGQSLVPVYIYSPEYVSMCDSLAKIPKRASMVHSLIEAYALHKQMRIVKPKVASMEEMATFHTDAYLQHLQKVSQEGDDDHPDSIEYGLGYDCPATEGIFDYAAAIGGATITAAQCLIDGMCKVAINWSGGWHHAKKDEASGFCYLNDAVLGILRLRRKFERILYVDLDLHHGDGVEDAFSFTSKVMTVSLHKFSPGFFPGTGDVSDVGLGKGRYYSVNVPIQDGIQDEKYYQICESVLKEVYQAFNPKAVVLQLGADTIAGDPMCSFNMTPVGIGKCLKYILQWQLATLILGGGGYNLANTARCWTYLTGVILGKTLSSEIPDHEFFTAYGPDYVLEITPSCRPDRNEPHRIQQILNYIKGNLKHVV
# Histone deacetylase 1 [4] = target: T4, Histone deacetylase 1 (Homo sapiens, UniProt Q13547); experiment: Inhibition of His-6-tagged full length HDAC1 (unknown origin) expressed in sf9 cells using carboxyfluorescein (FAM)-labeled acetylated peptide as substrate after 17 hrs by fluorescence-based electrophoretic assay
# [5] = target: T5, Polyamine deacetylase HDAC10 (Homo sapiens, UniProt Q969S8); experiment: Inhibition of C-terminal deleted 38 amino acids (632 to 669) HDAC10 (unknown origin) expressed in sf9 cells using carboxyfluorescein (FAM)-labeled acetylated peptide as substrate after 17 hrs by fluorescence-based electrophoretic assay
# T5 sequence (Q969S8 whole entry): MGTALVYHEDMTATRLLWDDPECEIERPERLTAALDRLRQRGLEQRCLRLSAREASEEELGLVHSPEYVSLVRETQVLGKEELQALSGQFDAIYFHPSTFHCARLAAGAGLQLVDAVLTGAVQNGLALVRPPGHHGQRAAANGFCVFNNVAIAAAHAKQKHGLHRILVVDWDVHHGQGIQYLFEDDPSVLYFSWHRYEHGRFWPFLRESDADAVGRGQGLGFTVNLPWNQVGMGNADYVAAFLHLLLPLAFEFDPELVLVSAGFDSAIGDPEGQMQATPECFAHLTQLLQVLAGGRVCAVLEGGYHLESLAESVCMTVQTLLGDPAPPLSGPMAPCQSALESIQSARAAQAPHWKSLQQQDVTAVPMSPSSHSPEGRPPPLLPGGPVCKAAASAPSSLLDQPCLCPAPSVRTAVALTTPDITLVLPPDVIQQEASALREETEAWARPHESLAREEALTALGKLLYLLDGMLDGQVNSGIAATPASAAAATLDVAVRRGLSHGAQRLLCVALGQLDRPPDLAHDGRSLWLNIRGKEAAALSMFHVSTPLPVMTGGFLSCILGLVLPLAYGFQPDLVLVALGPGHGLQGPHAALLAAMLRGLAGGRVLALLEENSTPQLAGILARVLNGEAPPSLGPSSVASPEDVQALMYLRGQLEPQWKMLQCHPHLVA
# Histone deacetylase 3 [6] = target: T6, Histone deacetylase 3 (Homo sapiens, UniProt O15379); experiment: Inhibition of His-6-tagged full length HDAC3 (unknown origin) expressed in sf9 cells and co-expressed in SMRT gene (395 to 489) using carboxyfluorescein (FAM)-labeled acetylated peptide as substrate after 17 hrs by fluorescence-based electrophoretic assay
# Histone deacetylase 4 = Histone deacetylase 4 (Homo sapiens, UniProt P56524); experiment: Inhibition of HDAC4 (unknown origin)
# [7] = target: T2, Protein deacetylase HDAC6; experiment: Inhibition of HDAC6 (unknown origin)
# Histone deacetylase 5 = Histone deacetylase 5 (Homo sapiens, UniProt Q9UQL6); experiment: Inhibition of HDAC5 (unknown origin)
# Histone deacetylase 2 [8] = target: T1, Histone deacetylase 2; experiment: Inhibition of HDAC2 (unknown origin)
# Histone deacetylase 1 [9] = target: T4, Histone deacetylase 1; experiment: Inhibition of HDAC1 (unknown origin)
# Histone deacetylase 8 [10] = target: T3, Histone deacetylase 8; experiment: Inhibition of HDAC8 (unknown origin)
# Histone deacetylase 3 [11] = target: T6, Histone deacetylase 3; experiment: Inhibition of HDAC3 (unknown origin)
# [12] = target: T5, Polyamine deacetylase HDAC10; experiment: Inhibition of HDAC10 (unknown origin)
# Histone deacetylase 2 [13] = target: T1, Histone deacetylase 2; experiment: Inhibition of HDAC2 (unknown origin) using carboxyfluorescein (FAM)-labeled acetylated peptide as substrate after 17 hrs by fluorescence-based electrophoretic assay
# Histone deacetylase 1 [14] = target: T4, Histone deacetylase 1; experiment: Inhibition of HDAC1 (unknown origin) using carboxyfluorescein (FAM)-labeled acetylated peptide as substrate after 17 hrs by fluorescence-based electrophoretic assay
# Histone deacetylase 3 [15] = target: T6, Histone deacetylase 3; experiment: Inhibition of HDAC3 (unknown origin) using carboxyfluorescein (FAM)-labeled acetylated peptide as substrate after 17 hrs by fluorescence-based electrophoretic assay
# [16] = target: T2, Protein deacetylase HDAC6; experiment: Inhibition of human recombinant HDAC6 using Ac-Leu-Gly-(AMC)Lys-Ac as substrate
# Histone deacetylase 1 [17] = target: T4, Histone deacetylase 1; experiment: Inhibition of human recombinant HDAC1 using Ac-Leu-Gly-(AMC)Lys-Ac as substrate
# Histone deacetylase 11 = target: T7, Histone deacetylase 11 (Homo sapiens, UniProt Q96DB2); experiment: Inhibition of HDAC11 (unknown origin)
# T7 sequence (Q96DB2 whole entry): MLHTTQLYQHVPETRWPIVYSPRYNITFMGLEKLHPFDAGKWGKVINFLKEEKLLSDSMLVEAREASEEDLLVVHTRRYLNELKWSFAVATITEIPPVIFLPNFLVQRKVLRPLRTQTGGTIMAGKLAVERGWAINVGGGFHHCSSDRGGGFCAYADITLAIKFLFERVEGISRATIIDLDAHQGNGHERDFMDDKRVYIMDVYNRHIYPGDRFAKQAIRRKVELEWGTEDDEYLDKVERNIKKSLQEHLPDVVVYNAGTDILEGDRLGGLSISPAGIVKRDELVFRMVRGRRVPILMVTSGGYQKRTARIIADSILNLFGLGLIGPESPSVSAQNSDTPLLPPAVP
# Histone deacetylase 7 = target: T8, Histone deacetylase 7 (Homo sapiens, UniProt Q8WUI4); experiment: Inhibition of HDAC7 (unknown origin)
# T8 sequence (Q8WUI4 whole entry): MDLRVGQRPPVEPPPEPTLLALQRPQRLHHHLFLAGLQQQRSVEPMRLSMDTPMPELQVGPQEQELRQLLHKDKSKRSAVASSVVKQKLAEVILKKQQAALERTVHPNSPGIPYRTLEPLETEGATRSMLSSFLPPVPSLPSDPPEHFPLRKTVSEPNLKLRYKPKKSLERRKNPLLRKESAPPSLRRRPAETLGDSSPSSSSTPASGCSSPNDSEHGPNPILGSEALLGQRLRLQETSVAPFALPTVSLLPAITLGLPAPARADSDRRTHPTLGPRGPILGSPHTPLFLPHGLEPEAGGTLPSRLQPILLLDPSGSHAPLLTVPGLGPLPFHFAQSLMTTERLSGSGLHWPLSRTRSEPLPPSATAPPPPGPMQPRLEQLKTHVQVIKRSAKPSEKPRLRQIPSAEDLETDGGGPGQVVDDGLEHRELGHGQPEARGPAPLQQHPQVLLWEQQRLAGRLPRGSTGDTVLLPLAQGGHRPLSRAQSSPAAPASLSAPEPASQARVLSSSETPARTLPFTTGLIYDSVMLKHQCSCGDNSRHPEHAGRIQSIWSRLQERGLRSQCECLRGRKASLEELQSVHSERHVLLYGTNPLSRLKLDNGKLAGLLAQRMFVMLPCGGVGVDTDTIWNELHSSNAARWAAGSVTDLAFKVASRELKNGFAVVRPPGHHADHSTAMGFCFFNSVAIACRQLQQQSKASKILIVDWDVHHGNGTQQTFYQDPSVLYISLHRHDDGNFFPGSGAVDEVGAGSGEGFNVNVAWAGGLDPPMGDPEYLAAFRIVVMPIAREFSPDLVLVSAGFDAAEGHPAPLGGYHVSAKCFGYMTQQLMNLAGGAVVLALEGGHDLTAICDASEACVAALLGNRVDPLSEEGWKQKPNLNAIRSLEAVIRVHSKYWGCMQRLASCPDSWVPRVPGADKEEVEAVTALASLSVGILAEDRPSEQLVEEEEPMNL
# T6 sequence (O15379 whole entry): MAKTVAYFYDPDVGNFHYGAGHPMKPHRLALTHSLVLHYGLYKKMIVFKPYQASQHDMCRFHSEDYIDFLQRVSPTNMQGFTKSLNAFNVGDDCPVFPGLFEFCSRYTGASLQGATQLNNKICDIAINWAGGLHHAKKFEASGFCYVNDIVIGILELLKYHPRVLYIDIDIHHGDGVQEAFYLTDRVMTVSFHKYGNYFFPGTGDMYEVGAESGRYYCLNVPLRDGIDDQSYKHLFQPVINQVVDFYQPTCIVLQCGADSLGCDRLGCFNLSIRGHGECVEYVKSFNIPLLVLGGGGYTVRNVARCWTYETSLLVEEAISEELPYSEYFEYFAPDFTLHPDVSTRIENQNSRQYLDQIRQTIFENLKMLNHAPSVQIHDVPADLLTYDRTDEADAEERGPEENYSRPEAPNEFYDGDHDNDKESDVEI
# Sequence of Histone deacetylase 5 (Q9UQL6 whole entry): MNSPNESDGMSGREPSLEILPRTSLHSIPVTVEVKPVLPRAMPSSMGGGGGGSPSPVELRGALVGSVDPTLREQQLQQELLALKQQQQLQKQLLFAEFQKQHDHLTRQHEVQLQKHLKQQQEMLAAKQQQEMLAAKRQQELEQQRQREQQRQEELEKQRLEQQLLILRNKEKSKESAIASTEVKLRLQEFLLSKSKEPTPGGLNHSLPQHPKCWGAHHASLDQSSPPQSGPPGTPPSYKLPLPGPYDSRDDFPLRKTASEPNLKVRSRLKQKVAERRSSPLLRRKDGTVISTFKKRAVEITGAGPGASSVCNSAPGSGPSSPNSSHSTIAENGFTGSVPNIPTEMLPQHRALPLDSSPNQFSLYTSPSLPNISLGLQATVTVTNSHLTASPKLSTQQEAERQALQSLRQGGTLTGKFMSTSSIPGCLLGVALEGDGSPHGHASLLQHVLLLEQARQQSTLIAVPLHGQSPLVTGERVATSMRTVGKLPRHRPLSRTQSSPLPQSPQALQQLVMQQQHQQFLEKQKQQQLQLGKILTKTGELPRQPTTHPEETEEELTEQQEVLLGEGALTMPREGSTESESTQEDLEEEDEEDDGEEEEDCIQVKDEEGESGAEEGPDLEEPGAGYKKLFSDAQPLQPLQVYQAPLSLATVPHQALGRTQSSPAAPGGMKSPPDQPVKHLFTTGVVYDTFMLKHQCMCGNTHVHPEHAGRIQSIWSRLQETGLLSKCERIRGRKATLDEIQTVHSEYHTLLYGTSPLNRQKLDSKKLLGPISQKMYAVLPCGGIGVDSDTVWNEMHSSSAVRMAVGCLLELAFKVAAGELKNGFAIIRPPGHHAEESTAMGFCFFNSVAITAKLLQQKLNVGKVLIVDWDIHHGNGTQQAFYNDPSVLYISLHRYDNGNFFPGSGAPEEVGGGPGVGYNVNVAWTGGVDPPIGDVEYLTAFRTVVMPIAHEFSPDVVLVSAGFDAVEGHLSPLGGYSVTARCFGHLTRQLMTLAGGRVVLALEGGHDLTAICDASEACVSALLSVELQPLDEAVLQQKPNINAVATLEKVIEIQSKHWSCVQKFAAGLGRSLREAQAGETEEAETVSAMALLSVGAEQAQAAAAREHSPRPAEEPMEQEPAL
# T4 sequence (Q13547 whole entry, the tested form may be a part): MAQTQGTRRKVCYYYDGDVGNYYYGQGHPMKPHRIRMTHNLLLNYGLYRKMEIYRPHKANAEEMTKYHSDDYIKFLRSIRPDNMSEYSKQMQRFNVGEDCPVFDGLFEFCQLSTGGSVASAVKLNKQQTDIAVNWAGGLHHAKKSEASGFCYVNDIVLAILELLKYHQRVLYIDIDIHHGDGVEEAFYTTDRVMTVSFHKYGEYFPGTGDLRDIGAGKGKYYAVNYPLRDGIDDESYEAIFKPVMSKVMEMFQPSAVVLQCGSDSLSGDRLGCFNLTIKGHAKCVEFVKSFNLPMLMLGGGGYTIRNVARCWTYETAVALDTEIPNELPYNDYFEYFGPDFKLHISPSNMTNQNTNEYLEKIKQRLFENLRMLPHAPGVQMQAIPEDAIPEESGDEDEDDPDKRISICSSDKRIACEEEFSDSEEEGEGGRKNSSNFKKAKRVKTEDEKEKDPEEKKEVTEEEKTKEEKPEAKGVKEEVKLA
# T1 sequence (Q92769 whole entry): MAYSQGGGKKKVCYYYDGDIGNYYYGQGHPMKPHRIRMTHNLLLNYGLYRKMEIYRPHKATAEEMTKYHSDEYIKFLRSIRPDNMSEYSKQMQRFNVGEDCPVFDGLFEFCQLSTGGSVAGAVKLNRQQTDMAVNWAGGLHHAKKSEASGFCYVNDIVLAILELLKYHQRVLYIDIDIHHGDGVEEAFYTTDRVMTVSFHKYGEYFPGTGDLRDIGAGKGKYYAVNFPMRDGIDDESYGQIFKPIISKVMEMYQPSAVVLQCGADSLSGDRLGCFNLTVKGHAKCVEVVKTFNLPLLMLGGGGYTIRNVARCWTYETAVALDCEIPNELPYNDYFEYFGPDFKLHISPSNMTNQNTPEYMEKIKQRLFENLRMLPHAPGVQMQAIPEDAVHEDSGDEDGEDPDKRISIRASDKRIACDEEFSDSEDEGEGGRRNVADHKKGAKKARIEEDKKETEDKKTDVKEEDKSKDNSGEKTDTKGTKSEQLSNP
# Sequence of Histone deacetylase 4 (P56524 whole entry): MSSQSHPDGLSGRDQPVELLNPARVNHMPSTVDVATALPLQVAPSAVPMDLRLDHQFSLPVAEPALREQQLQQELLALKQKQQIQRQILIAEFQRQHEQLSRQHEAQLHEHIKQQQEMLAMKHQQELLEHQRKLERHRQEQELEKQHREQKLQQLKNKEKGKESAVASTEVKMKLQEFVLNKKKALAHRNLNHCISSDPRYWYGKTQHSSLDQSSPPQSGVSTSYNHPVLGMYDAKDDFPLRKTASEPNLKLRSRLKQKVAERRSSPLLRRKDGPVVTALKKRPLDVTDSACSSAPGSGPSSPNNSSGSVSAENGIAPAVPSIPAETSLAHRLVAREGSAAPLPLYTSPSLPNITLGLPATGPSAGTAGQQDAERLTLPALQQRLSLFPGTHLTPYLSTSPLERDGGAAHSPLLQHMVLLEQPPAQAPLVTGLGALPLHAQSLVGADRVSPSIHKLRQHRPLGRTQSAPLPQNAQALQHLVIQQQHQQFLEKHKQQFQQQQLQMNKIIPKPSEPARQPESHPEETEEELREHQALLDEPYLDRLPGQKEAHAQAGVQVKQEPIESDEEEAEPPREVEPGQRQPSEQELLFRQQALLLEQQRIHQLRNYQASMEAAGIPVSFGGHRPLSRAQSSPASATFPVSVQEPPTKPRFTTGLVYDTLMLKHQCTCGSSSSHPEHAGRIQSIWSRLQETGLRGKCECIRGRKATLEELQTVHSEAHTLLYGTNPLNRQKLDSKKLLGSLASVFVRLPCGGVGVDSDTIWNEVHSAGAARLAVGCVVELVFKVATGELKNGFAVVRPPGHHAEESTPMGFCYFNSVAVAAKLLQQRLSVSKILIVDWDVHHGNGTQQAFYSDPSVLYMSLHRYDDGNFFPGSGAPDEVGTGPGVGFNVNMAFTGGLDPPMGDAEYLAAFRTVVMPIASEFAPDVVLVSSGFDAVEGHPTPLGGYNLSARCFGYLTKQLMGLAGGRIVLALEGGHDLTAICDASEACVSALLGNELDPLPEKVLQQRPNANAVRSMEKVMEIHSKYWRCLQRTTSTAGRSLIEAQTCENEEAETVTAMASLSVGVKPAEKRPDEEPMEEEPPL
smiles,measurement,setting,value
CC(C)(C)OC(=O)Nc1cccc(-c2csc(NC(=O)CCCCCCC(=O)NO)n2)c1,IC50,Histone deacetylase 2 [1],0.021 µM
same,IC50,[2],< 0.0002 µM
same,IC50,Histone deacetylase 8 [3],2.58 µM
same,IC50,Histone deacetylase 1 [4],0.004 µM
same,IC50,[5],0.006 µM
same,IC50,Histone deacetylase 3 [6],0.002 µM
Cc1onc(-c2ccccc2)c1C(=O)NCCCCCNC(=O)[C@@H](C)S,IC50,Histone deacetylase 4,> 30 µM
same,IC50,[7],0.28 µM
same,IC50,Histone deacetylase 5,> 30 µM
same,IC50,Histone deacetylase 2 [8],> 30 µM
same,IC50,Histone deacetylase 1 [9],> 30 µM
O=C(CCCCCCC(=O)Nc1ccc(-c2ccccc2NC(=O)[C@@H]2CCCN2)cc1)NO,IC50,Histone deacetylase 2 [1],0.193 µM
same,IC50,[2],0.016 µM
same,IC50,Histone deacetylase 8 [3],2.66 µM
same,IC50,Histone deacetylase 1 [4],0.052 µM
same,IC50,[5],0.07 µM
CCCCOc1ccc(CC(=O)NO)cc1 [BUFEXAMAC],Kd,[7]; read-out: Kd(app),10.7 µM
same,Kd,Histone deacetylase 8 [10]; read-out: Kd(app),235 µM
same,Kd,Histone deacetylase 2 [8]; read-out: Kd(app),> 1000 µM
same,Kd,Histone deacetylase 1 [9]; read-out: Kd(app),> 1000 µM
same,Kd,Histone deacetylase 3 [11]; read-out: Kd(app),341 µM
same,Kd,[12]; read-out: Kd(app),12.3 µM
COC(=O)[C@H](Cc1ccccn1)NC(=O)CCCCCCCC(=O)NO,IC50,[7],4.06 µM
same,IC50,Histone deacetylase 1 [9],67.3 µM
COC(=O)[C@@H](Cc1ccccn1)NC(=O)CCCCCCCC(=O)NO,IC50,[7],4.01 µM
same,IC50,Histone deacetylase 1 [9],82.6 µM
CC(C)(C)OC(=O)Nc1ccc(-c2cc(C(=O)NCCCCCCC(=O)NO)no2)cc1,IC50,Histone deacetylase 2 [13],0.093 µM
same,IC50,Histone deacetylase 1 [14],0.0127 µM
same,IC50,Histone deacetylase 3 [15],0.19 µM
O=C(NC1=CC(=O)c2ccccc2C1=O)c1ccccc1,IC50,[16],5.54 µM
same,IC50,Histone deacetylase 1 [17],> 180 µM
O=C(CS)NCCCCCC(=O)Nc1cccc2cccnc12,IC50,[7],0.021 µM
same,IC50,Histone deacetylase 11,0.61 µM
same,IC50,Histone deacetylase 5,0.89 µM
same,IC50,Histone deacetylase 7,2.78 µM
same,IC50,Histone deacetylase 2 [8],1.25 µM
same,IC50,Histone deacetylase 3 [11],1.32 µM
Cc1onc(-c2ccccc2)c1C(=O)NCCCCCNC(=O)CS,IC50,Histone deacetylase 4,10 µM
same,IC50,[7],0.26 µM
same,IC50,Histone deacetylase 5,15 µM
same,IC50,Histone deacetylase 2 [8],28 µM
same,IC50,Histone deacetylase 1 [9],5.7 µM
O=C(CCCCCNC(=O)NC12CC3CC(CC(C3)C1)C2)NO,IC50,[7],0.073 µM
same,IC50,Histone deacetylase 11,0.19 µM
same,IC50,Histone deacetylase 8 [10],6.8 µM
same,IC50,Histone deacetylase 5,0.31 µM
same,IC50,Histone deacetylase 7,1.29 µM
same,IC50,Histone deacetylase 2 [8],2.58 µM
same,IC50,Histone deacetylase 1 [9],0.58 µM
same,IC50,Histone deacetylase 3 [11],1.56 µM
same,IC50,[12],0.27 µM
O=C(CCCCCCNC(=O)c1cnc(N(c2ccccc2)c2ccccc2)nc1)NO [RICOLINOSTAT],IC50,[12],> 10 µM
